In ChEMBL document CHEMBL1944536, “Increased endothelial cell selectivity of triazole-bridged dihalogenated A-ring analogues of combretastatin A-1” (Bioorg Med Chem, 2012):

Assays:
HeLa = experiment: Cytotoxicity against human HeLa cells; assay type: functional, cell-based
SK-OV-3 [1] = experiment: Cell cycle arrest in human SKOV3 cells assessed as accumulation at G2/M phase at 5 nM by flow cytometry (reference value: 14%); assay type: functional
SK-OV-3 [2] = experiment: Cell cycle arrest in human SKOV3 cells assessed as accumulation at G1 phase at 5 nM by flow cytometry (reference value: 54%); assay type: functional
SK-OV-3 [3] = experiment: Cell cycle arrest in human SKOV3 cells assessed as accumulation at S phase at 5 nM by flow cytometry (reference value: 31%); assay type: functional
HUVEC [4] = experiment: Antivascular activity against HUVEC cells assessed as cell growth inhibition measured every 30 mins for 21 hrs by xCELLigence assay; assay type: functional, cell-based; conditions: Homo sapiens
Bos taurus = species: Bos taurus; experiment: Inhibition of bovine tubulin polymerization at 5 uM measured every 30 secs for 60 mins by spectrophotometry relative to control
SK-OV-3 [5] = experiment: Cytotoxicity against human SKOV3 cells after 48 hrs by MTS assay; assay type: functional, cell-based; conditions: SK-OV-3, 48 h
HUVEC [6] = experiment: Antivascular activity against HUVEC cells assessed as cell growth inhibition after 48 hrs by xCELLigence assay; assay type: functional, cell-based; conditions: Homo sapiens
HUVEC [7] = experiment: Antivascular activity against HUVEC cells assessed as cell growth inhibition after 24 hrs by xCELLigence assay; assay type: functional, cell-based; conditions: Homo sapiens

COc1cc(-c2nn[nH]c2-c2ccc(N)cc2)cc(OC)c1OC
IC50 (HeLa): 5000 nM

COc1ccc(/C=C\c2cc(Br)c(OC)c(Br)c2)cc1O
Activity (SK-OV-3 [1]): 54%

COc1ccc(/C=C\c2cc(I)c(OC)c(I)c2)cc1O
Activity (SK-OV-3 [1]): 84%

COc1ccc(/C=C\c2cc(OC)c(OC)c(OC)c2)cc1O [COMBRETASTATIN A4]
Activity (SK-OV-3 [2]): 40%
Activity (SK-OV-3 [3]): 23%
Activity (SK-OV-3 [1]): 31%
IC50 (HUVEC [4]): 2.2 nM
inhibition (Bos taurus): 57.6%
IC50 (SK-OV-3 [5]): 1.7 nM

COc1ccc(/C=C\c2cc(OC)c(OC)c(OC)c2)c(O)c1O [COMBRETASTATIN A-1]
IC50 (HUVEC [6]): 4.1 nM
IC50 (HUVEC [7]): 2.6 nM
